Read-outs that look alike come from different tables or passages of the source.
What was measured:
[1] = test system: huCART19 cells; assay: 4 day co-culture proliferation assay of CARTs with Nalm-6 cells in the presence of RAD001; assay type: cell-based, human
From the text: A humanized, anti-human CD19 CAR (huCART19) lentiviral transfer vector was used to produce the genomic material packaged into VSVg pseudotyped lentiviral particles. The amino acid and nucleotide sequence of the humanized anti-human CD19 CAR (huCART19) is CAR 1, ID 104875, described in PCT publication, WO2014/153270, filed Mar. 15, 2014, and is designated SEQ ID NOs. 85 and 31 therein.
Lentiviral transfer vector DNA is mixed with the three packaging components VSVg env, gag/pol and rev in combination with lipofectamine reagent to transfect Lenti-X 293T cells. Medium is changed after 24 h and 30 h thereafter, the virus-containing media is collected, filtered and stored at −80° C. CARTs are generated by transduction of fresh or frozen naïve T cells obtained by negative magnetic selection of healthy donor blood or leukopak. T cells are activated by incubation with anti-CD3/anti-CD28 beads for 24 h, after which viral supernatant or concentrated virus (MOI=2 or 10, respectively) is added to the cultures. The modified T cells are allowed to expand for about 10 days. The percentage of cells transduced (expressing the CARs on the cell surface) and the level of CAR expression (relative fluorescence intensity, Geo Mean) are determined by flow cytometric analysis between days 7 and 9. The combination of slowing growth rate and T cell size approaching ˜350 fL determines the state for T cells to be cryopreserved for later analysis.
To evaluate the functionality of CARTs, the T cells are thawed and counted, and viability is assessed by Cellometer. The number of CAR-positive cells in each culture is normalized using non-transduced T cells (UTD). The impact of RAD001 on CARTs was tested in titrations with RAD001, starting at 50 nM. The target cell line used in all co-culture experiments is Nalm-6, a human pre-B cell acute lymphoblastic leukemia (ALL) cell line expressing CD19 and transduced to express luciferase.
For measuring the proliferation of CARTs, T cells are cultured with target cells at a ratio of 1:1. The assay is run for 4 days, when cells are stained for CD3, CD4, CD8 and CAR expression. The number of T cells is assessed by flow cytometry using counting beads as reference.

[2] = test system: NALM6-luc tumors; assay: Tumor growth of NALM6-luc cells in NSG mice with daily RAD001 dosing; assay type: in vivo; conditions: daily oral dosing of RAD001 alone, 0.3, 1, 3 and 10 mg/kg
Description: NALM6-luc cells: The NALM6 human acute lymphoblastic leukemia (ALL) cell line was developed from the peripheral blood of a patient with relapsed ALL. The cells were then tagged with firefly luciferase. These suspension cells grow in RPMI supplemented with 10% heat inactivated fetal bovine serum.
Mice: 6 week old NSG (NOD.Cg-PrkdcscidIl2rgtm1Wjl/SzJ) mice were received from the Jackson Laboratory (stock number 005557).
(§1) Tumor implantation: NALM6-luc cells were grown and expanded in vitro in RPMI supplemented with 10% heat inactivated fetal bovine serum. The cells were then transferred to a 15 ml conical tube and washed twice with cold sterile PBS. NALM6-luc cells were then counted and resuspended at a concentration of 10×10^6 cells per milliliter of PBS. The cells were placed on ice and immediately (within one hour) implanted in the mice. NALM6-luc cells were injected intravenously via the tail vein in a 100 μl volume, for a total of 1×10^6 cells per mouse.
(§2) RAD001 dosing: A concentrated micro-emulsion of 50 mg equal to 1 mg RAD001 was formulated and then resuspended in D5W (dextrose 5% in water) at the time of dosing. Mice were orally dosed daily (via oral gavage) with 200 μl of the desired doses of RAD001.

[3] = Pharmacokinetics of RAD001 in the blood of NSG mice with NALM6 tumors; assay type: in vivo; conditions: for concentration at 24 h: mouse, blood
Description: as §2
PK analysis: Mice were dosed daily with RAD001 starting 7 days post tumor implantation. Dosing groups were as follows: 0.3 mg/kg, 1 mg/kg, 3 mg/kg, and 10 mg/kg. Mice were bled on days 0 and 14 following the first and last dose of RAD001, at the following time points for PK analysis: 15 minutes, 30 minutes, 1 hour, 2 hours, 4 hours, 8 hours, 12 hours, and 24 hours.

[4] = test system: huCAR19 CAR T cells; assay: In vivo proliferation of humanized CD19 CAR T cells with and without RAD001 dosing; set-up: species or system NSG mice
Description: as §1
CAR T cell dosing: Mice were administered 5×10^6 CAR T cells 7 days after tumor implantation. Cells were partially thawed in a 37 degree Celsius water bath and then completely thawed by the addition of 1 ml of cold sterile PBS to the tube containing the cells. The thawed cells were transferred to a 15 ml falcon tube and adjusted to a final volume of 10 mls with PBS. The cells were washed twice at 1000 rpm for 10 minutes each time and then counted on a hemocytometer. T cells were then resuspended at a concentration of 50×10^6 CAR T cells per ml of cold PBS and kept on ice until the mice were dosed. The mice were injected intravenously via the tail vein with 100 μl of the CAR T cells for a dose of 5×10^6 CAR T cells per mouse. Eight mice per group were treated either with 100 μl of PBS alone (PBS), or humanized CD19 CAR T cells.
as §2
Based on these doses, huCAR19 CAR T cells were dosed with and without RAD001 to determine the proliferative ability of these cells. The highest dose used was 3 mg/kg based on the levels of RAD001 in the blood 24 hours after dosing. As the concentration of RAD001 was above 10 nM 24 hours after the final dose of RAD001, several lower doses of RAD001 were used in the in vivo study with CAR T cells. The CAR T cells were dosed IV one day prior to the start of the daily oral RAD001 dosing. Mice were monitored via FACS for T cell expansion.

CO[C@H]1C[C@@H]2CC[C@@H](C)[C@@](O)(O2)C(=O)C(=O)N2CCCC[C@H]2C(=O)O[C@H]([C@H](C)C[C@@H]2CC[C@@H](OCCO)[C@H](OC)C2)CC(=O)[C@H](C)/C=C(\C)[C@@H](O)[C@@H](OC)C(=O)[C@H](C)C[C@H](C)/C=C/C=C/C=C/1C [RAD001, (1R,9S,12S,15R,16E,18R,19R,21R,23S,24E,26E,28E,30S,32S,35R)-1,18-dihydroxy-12-{(1R)-2-[(1S,3R,4R)-4-(2-hydroxyethoxy)-3-methoxycyclohexyl]-1-methylethyl}-19,30-dimethoxy-15,17,21,23,29,35-hexamethyl-11,36-dioxa-4-aza-tricyclo[30.3.1.04,9]hexatriaconta-16,24,26,28-tetraene-2,3,10,14,20-pentaone]
proliferation of huCART19 cells versus no RAD001 ([1]; 0.0032 nM RAD001): higher than observed without the addition of RAD001 | proliferation of huCART19 cells versus no RAD001 ([1]; 0.016 nM RAD001): higher than observed without the addition of RAD001 | RAD001 concentration at which huCART19 cells expanded ([1]; 4 day co-culture with Nalm-6, ratio 1:1): less than 0.016 nM | proliferation of CAR-expressing, transduced T cells ([1]; low doses of RAD001, cell culture system, FIG. 12): enhanced | growth of NALM6-luc tumors [2]: did not have an impact on the growth of NALM6-luc tumors | concentration at 24 h ([3]; NSG, lowest dose tested (0.3 mg/kg), oral, read-out: RAD001 concentration in the blood 24 hours after dosing): > 10 nM | stability in the blood of tumor bearing mice ([3]; daily oral dosing, NSG mice): fairly stable | RAD001 concentration in the blood 24 hours after dosing ([3]; day 14, lowest dose tested (0.3 mg/kg), oral): above 10 nm | concentration at 24 h ([3]; 0.3 mg/kg, NSG mice, daily oral dosing, read-out: concentration of RAD001 24 hours after the final dose): > 10 nM | CAR T cell proliferation in vivo versus normal level of huCAR19 proliferation ([4]; 0.003 mg/kg RAD001 daily): enhancement in CAR T cell proliferation | enhanced proliferation, CD4+ CAR T cells compared with CD8+ CAR T cells ([4]; lowest doses of RAD001): more evident and prolonged | proliferation of CD8+ CAR T cells in vivo ([4]; lowest doses of RAD001): enhanced proliferation can be seen at early time points | proliferation of the CAR T cells in vivo ([4]; lowest doses of RAD001, daily oral): enhanced proliferation
